PMC8626469, “Helicobacter pylori FabX contains a [4Fe-4S] cluster essential for unsaturated fatty acid synthesis” (Nature Communications, 2021)

Target: T1, FabX (Helicobacter pylori, UniProt A0A0B2E3F3)
T1 construct: gene C2842_03950; full length, 363 residues; expressed in E. coli BL21(DE3) Rosetta; monomer in the asymmetric unit; holds FMN and a [4Fe-4S] cluster
T1 sequence (A0A0B2E3F3 1-363): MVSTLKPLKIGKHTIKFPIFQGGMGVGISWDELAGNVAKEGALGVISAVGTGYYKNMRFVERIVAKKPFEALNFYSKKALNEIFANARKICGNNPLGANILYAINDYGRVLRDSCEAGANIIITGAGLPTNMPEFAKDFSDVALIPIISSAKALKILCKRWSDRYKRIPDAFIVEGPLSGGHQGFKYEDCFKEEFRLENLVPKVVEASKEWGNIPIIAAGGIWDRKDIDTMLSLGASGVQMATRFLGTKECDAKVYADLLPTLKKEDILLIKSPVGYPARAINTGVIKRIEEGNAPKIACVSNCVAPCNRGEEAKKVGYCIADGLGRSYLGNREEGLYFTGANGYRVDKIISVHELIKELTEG
Test: X-ray crystal structure, […] Å
Format: binding
Details: noncovalent in TIM-barrel core; also present in complexes with holo-ACP and octanoyl-ACP

Question: How did the “X-ray crystal structure, 1.7 Å” value turn out when Cc1cc2nc3c(=O)[nH]c(=O)nc-3n(C[C@H](O)[C@H](O)[C@H](O)COP(=O)(O)O)c2cc1C [FMN] was run?
Answer: Its value is “a FMN molecule is noncovalently bound inside the core”.
